Source: the NIST ThermoML archive (doi:10.1021/acs.jced.7b00347)

Assay: mn = molality of the nth substance listed, in mol/kg
Details: for surface tension liquid-gas: Ring tensiometer; for electrical conductivity: 100 kPa, Liquid, Alternating current cell with electrodes

CCCCCCCCC[NH+](CCO)CC(C)O.[Cl-] (stereo unspecified) + O
Details	electrical conductivity [S/m]	surface tension liquid-gas [mN/m]
293.15 K, m1 = 1.77e-05	0.00044	–
293.15 K, m1 = 1.774e-05	–	61.16
293.15 K, m1 = 3.548e-05	–	54.59
293.15 K, m1 = 3.66e-05	0.000507	–
293.15 K, m1 = 5.55e-05	0.000574	–
293.15 K, m1 = 7.43e-05	0.000641	–
293.15 K, m1 = 8.87e-05	–	46.05
293.15 K, m1 = 9.32e-05	0.000709	–
293.15 K, m1 = 0.0001121	0.000776	–
293.15 K, m1 = 0.0001309	0.000843	–
293.15 K, m1 = 0.0001498	0.00091	–
293.15 K, m1 = 0.0001687	0.000977	–
293.15 K, m1 = 0.0001774	–	39.04
293.15 K, m1 = 0.0001875	0.00104	–
293.15 K, m1 = 0.0002064	0.00111	–
293.15 K, m1 = 0.0002253	0.00118	–
293.15 K, m1 = 0.0002441	0.00125	–
293.15 K, m1 = 0.000263	0.00131	–
293.15 K, m1 = 0.0002661	–	35.47
293.15 K, m1 = 0.0002819	0.00138	–
293.15 K, m1 = 0.0003008	0.00145	–
293.15 K, m1 = 0.0003196	0.00152	–
293.15 K, m1 = 0.0003385	0.00158	–
293.15 K, m1 = 0.0003548	–	33.14
293.15 K, m1 = 0.0003574	0.00165	–
293.15 K, m1 = 0.0003762	0.00172	–
293.15 K, m1 = 0.0003951	0.00178	–
293.15 K, m1 = 0.000414	0.00185	–
293.15 K, m1 = 0.0004257	–	31.39
293.15 K, m1 = 0.0004328	0.00192	–
293.15 K, m1 = 0.0004555	0.00197	–
293.15 K, m1 = 0.0004782	0.00202	–
293.15 K, m1 = 0.0005009	0.00207	–
293.15 K, m1 = 0.0005236	0.00212	–
293.15 K, m1 = 0.0005464	0.00217	–
293.15 K, m1 = 0.0005691	0.00222	–
293.15 K, m1 = 0.0005918	0.00227	–
293.15 K, m1 = 0.0006145	0.00232	–
293.15 K, m1 = 0.0006372	0.00236	–
293.15 K, m1 = 0.0006599	0.00242	–
293.15 K, m1 = 0.0006826	0.00246	–
293.15 K, m1 = 0.0007053	0.00251	–
293.15 K, m1 = 0.000728	0.00256	–
293.15 K, m1 = 0.0007507	0.00261	–
293.15 K, m1 = 0.0007734	0.00266	–
293.15 K, m1 = 0.0007961	0.00271	–
293.15 K, m1 = 0.0008188	0.00276	–
293.15 K, m1 = 0.0008415	0.00281	–
293.15 K, m1 = 0.0008642	0.00286	–
293.15 K, m1 = 0.0008869	0.00291	–
293.15 K, m1 = 0.000887	–	30.48
293.15 K, m1 = 0.001774	–	29.73
293.15 K, m1 = 0.002661	–	29.56
293.15 K, m1 = 0.003547	–	29.48
298.15 K, m1 = 1.77e-05	0.00054	–
298.15 K, m1 = 1.774e-05	–	56.05
298.15 K, m1 = 3.548e-05	–	49.71
298.15 K, m1 = 4.07e-05	0.000642	–
298.15 K, m1 = 6.36e-05	0.000745	–
298.15 K, m1 = 8.66e-05	0.000848	–
298.15 K, m1 = 8.87e-05	–	41.62
298.15 K, m1 = 0.0001095	0.00095	–
298.15 K, m1 = 0.0001324	0.00105	–
298.15 K, m1 = 0.0001554	0.00115	–
298.15 K, m1 = 0.0001774	–	35.73
298.15 K, m1 = 0.0001783	0.00126	–
298.15 K, m1 = 0.0002013	0.00136	–
298.15 K, m1 = 0.0002242	0.00146	–
298.15 K, m1 = 0.0002472	0.00156	–
298.15 K, m1 = 0.0002661	–	32.44
298.15 K, m1 = 0.0002701	0.00167	–
298.15 K, m1 = 0.000293	0.00177	–
298.15 K, m1 = 0.000316	0.00187	–
298.15 K, m1 = 0.0003389	0.00198	–
298.15 K, m1 = 0.0003619	0.00208	30.45
298.15 K, m1 = 0.0003881	0.00215	–
298.15 K, m1 = 0.0004144	0.00222	–
298.15 K, m1 = 0.0004406	0.00229	–
298.15 K, m1 = 0.0004669	0.00237	–
298.15 K, m1 = 0.0004931	0.00244	–
298.15 K, m1 = 0.0005194	0.00251	–
298.15 K, m1 = 0.0005456	0.00258	–
298.15 K, m1 = 0.0005719	0.00265	–
298.15 K, m1 = 0.0005981	0.00273	–
298.15 K, m1 = 0.0006244	0.0028	–
298.15 K, m1 = 0.0006507	0.00287	–
298.15 K, m1 = 0.0006769	0.00294	–
298.15 K, m1 = 0.0007032	0.00301	–
298.15 K, m1 = 0.0007294	0.00309	–
298.15 K, m1 = 0.0007557	0.00316	–
298.15 K, m1 = 0.0007819	0.00323	–
298.15 K, m1 = 0.0008082	0.0033	–
298.15 K, m1 = 0.0008344	0.00337	–
298.15 K, m1 = 0.0008607	0.00345	–
298.15 K, m1 = 0.0008869	0.00352	–
298.15 K, m1 = 0.000887	–	29.41
298.15 K, m1 = 0.001774	–	28.9
298.15 K, m1 = 0.002661	–	28.56
298.15 K, m1 = 0.003547	–	28.41
303.15 K, m1 = 1.77e-05	0.00064	–
303.15 K, m1 = 1.774e-05	–	51.35
303.15 K, m1 = 3.548e-05	–	46.22
303.15 K, m1 = 3.66e-05	0.000736	–
303.15 K, m1 = 5.54e-05	0.000832	–
303.15 K, m1 = 7.43e-05	0.000928	–
303.15 K, m1 = 8.87e-05	–	38.79
303.15 K, m1 = 9.31e-05	0.00102	–
303.15 K, m1 = 0.000112	0.00112	–
303.15 K, m1 = 0.0001308	0.00122	–
303.15 K, m1 = 0.0001497	0.00131	–
303.15 K, m1 = 0.0001685	0.00141	–
303.15 K, m1 = 0.0001774	–	33.47
303.15 K, m1 = 0.0001874	0.00151	–
303.15 K, m1 = 0.0002062	0.0016	–
303.15 K, m1 = 0.0002251	0.0017	–
303.15 K, m1 = 0.0002439	0.00179	–
303.15 K, m1 = 0.0002628	0.00189	–
303.15 K, m1 = 0.0002661	–	30.23
303.15 K, m1 = 0.0002816	0.00199	–
303.15 K, m1 = 0.0003004	0.00208	–
303.15 K, m1 = 0.0003193	0.00218	–
303.15 K, m1 = 0.0003229	–	29.48
303.15 K, m1 = 0.0003451	0.00227	–
303.15 K, m1 = 0.0003548	–	29.41
303.15 K, m1 = 0.0003709	0.00236	–
303.15 K, m1 = 0.0003967	0.00245	–
303.15 K, m1 = 0.0004225	0.00254	–
303.15 K, m1 = 0.0004483	0.00263	–
303.15 K, m1 = 0.0004741	0.00272	–
303.15 K, m1 = 0.0004999	0.00281	–
303.15 K, m1 = 0.0005257	0.00291	–
303.15 K, m1 = 0.0005515	0.003	–
303.15 K, m1 = 0.0005773	0.00309	–
303.15 K, m1 = 0.0006031	0.00318	–
303.15 K, m1 = 0.0006289	0.00327	–
303.15 K, m1 = 0.0006547	0.00336	–
303.15 K, m1 = 0.0006805	0.00345	–
303.15 K, m1 = 0.0007063	0.00354	–
303.15 K, m1 = 0.0007321	0.00363	–
303.15 K, m1 = 0.0007579	0.00372	–
303.15 K, m1 = 0.0007837	0.00381	–
303.15 K, m1 = 0.0008095	0.00391	–
303.15 K, m1 = 0.0008353	0.004	–
303.15 K, m1 = 0.0008611	0.00409	–
303.15 K, m1 = 0.0008869	0.00418	–
303.15 K, m1 = 0.000887	–	28.48
303.15 K, m1 = 0.001774	–	28.01
303.15 K, m1 = 0.002661	–	27.82
303.15 K, m1 = 0.003547	–	27.65
308.15 K, m1 = 8.869e-06	–	52.23
308.15 K, m1 = 1.77e-05	0.00074	–
308.15 K, m1 = 1.774e-05	–	47.19
308.15 K, m1 = 3.42e-05	0.000841	–
308.15 K, m1 = 3.548e-05	–	42.29
308.15 K, m1 = 5.07e-05	0.000941	–
308.15 K, m1 = 6.72e-05	0.00104	–
308.15 K, m1 = 8.36e-05	0.00114	–
308.15 K, m1 = 8.87e-05	–	35.88
308.15 K, m1 = 0.0001001	0.00124	–
308.15 K, m1 = 0.0001166	0.00134	–
308.15 K, m1 = 0.000133	0.00144	–
308.15 K, m1 = 0.0001495	0.00154	–
308.15 K, m1 = 0.000166	0.00165	–
308.15 K, m1 = 0.0001774	–	30.89
308.15 K, m1 = 0.0001825	0.00175	–
308.15 K, m1 = 0.0001989	0.00185	–
308.15 K, m1 = 0.0002154	0.00195	–
308.15 K, m1 = 0.0002319	0.00205	–
308.15 K, m1 = 0.0002483	0.00215	28.73
308.15 K, m1 = 0.0002732	–	28.57
308.15 K, m1 = 0.0002803	0.00229	–
308.15 K, m1 = 0.0003122	0.00243	–
308.15 K, m1 = 0.0003441	0.00257	–
308.15 K, m1 = 0.0003548	–	28.44
308.15 K, m1 = 0.0003761	0.00271	–
308.15 K, m1 = 0.000408	0.00285	–
308.15 K, m1 = 0.0004399	0.00299	–
308.15 K, m1 = 0.0004718	0.00313	–
308.15 K, m1 = 0.0005038	0.00327	–
308.15 K, m1 = 0.0005357	0.00341	–
308.15 K, m1 = 0.0005676	0.00356	–
308.15 K, m1 = 0.0005996	0.00369	–
308.15 K, m1 = 0.0006315	0.00384	–
308.15 K, m1 = 0.0006634	0.00398	–
308.15 K, m1 = 0.0006954	0.00412	–
308.15 K, m1 = 0.0007273	0.00426	–
308.15 K, m1 = 0.0007592	0.0044	–
308.15 K, m1 = 0.0007911	0.00454	–
308.15 K, m1 = 0.0008231	0.00468	–
308.15 K, m1 = 0.000855	0.00482	–
308.15 K, m1 = 0.0008869	0.00496	–
308.15 K, m1 = 0.000887	–	27.73
308.15 K, m1 = 0.001774	–	27.41
308.15 K, m1 = 0.002661	–	27.23
